Where two headings read alike, the source gives them in different places.
Test: Single ascending dose and food-effect pharmacokinetics of naringin tablets in healthy humans
Type: in vivo, human
Conditions: for Tmax / half-life / AUC(0-inf) / AUC(0-t) / Cmax / MRT last / MRT inf / effect of a high-fat diet on t1/2, Tmax, Cmax and AUC / CL: human; for Tmax / half-life / AUC(0-inf) / AUC(0-t) / Cmax / MRT last / MRT inf: plasma; for MRT last: read-out: MRT0-t; for MRT inf: read-out: MRT0-∞; for effect of a high-fat diet on t1/2, Tmax, Cmax and AUC: food-effect trial, naringin 160 mg p.o.
Source text: Participants were healthy males and females, 18 to 40 years old, ≥50 kg weight, 19 to 25 kg m^2 body mass index. The health condition of participants was considered good based on the screened medical history, physical examination, vital signs, electrocardiogram, and laboratory examination. […] Clinical laboratory test results (sodium, potassium, total protein, white blood and red blood cell counts, hematocrit, hemoglobin, platelet count, aspartate aminotransferase, alanine aminotransferase, gamma-glutamyl transferase, blood urea nitrogen, creatinine, total bilirubin, alkaline phosphatase, creatine kinase, lactate dehydrogenase, calcium, chloride, phosphorus, albumin, globulin, cholesterol, triglycerides, glucose, uric acid, and urinalysis) had to be within normal ranges, without other clinically significant abnormalities. During the study duration, participants were required to use barrier contraception with spermicide during sexual intercourse. During the trial, female participants were in the nonmenstrual, nonpregnant, and nonlactation periods, and they were nonsmokers. Participants were not planning a pregnancy within 6 months of the clinical trials, they communicated with the investigator, understood and complied with the study requirements, and signed informed consent.
Using the Statistical Analysis System (SAS) software (Version 9.4, SAS Institute Inc., Cary, NC, USA), subject randomization and blinding/masking were performed by statisticians from the Department of Health Statistics at the Second Military Medical University.
All blood samples were transferred into heparin-treated centrifuge tubes and centrifuged for 10 min at 4,000 rpm and 4°C. All human urine samples were mixed and transferred (4 ml) into storage tubes. All biological samples were stored at −80°C.
The optimal volume and activity in unit volume of enzyme solution [0.2 M acetic acid/water solution: 0.2 M ammonium acetate/water solution, 15:35 (v/v)] were determined through a pretest of the enzyme (rat plasma, 10 μl, 10 U μl^-1; dog plasma, 10 μl, 10 U μl^-1; human plasma, 20 μl, 20 U μl^-1; human urine, 10 μl, 10 U μl^-1). […] To each fecal sample, 9-fold methanol-normal saline (2:1, v/v) was added, mixed (18,000 rpm, 15 min) by vortexing and centrifuged (10 min, 9,000 rpm, 4°C). […] Then, all plasma, urine, and fecal samples were extracted with ethyl acetate (rat plasma, 800 μl; dog plasma, 1,000 μl; human plasma, 3,000 μl; human urine, 3,000 μl; human feces, 3,000 μl) for at least 3 min by vortexing, centrifuged for 10 min at 3,900 rpm and 4°C; supernatants were transferred into centrifuge tubes and dried with N2. The solid material was dissolved with acetonitrile-water (1:1, v/v) and injected into the ultra high-performance liquid chromatography coupled with triple quadrupole mass spectrometry (UHPLC/MS/MS) system as described below.
The analysis of nonclinical and clinical samples was performed with a UHPLC/MS/MS system that consisted of a Shimadzu Nexera X2 ultra high-performance liquid chromatography (UHPLC) (Shimadzu Corp., Kyoto, Japan) coupled with an AB Sciex API4000 triple-quadrupole mass spectrometry (MS/MS) system (AB Sciex, Foster City, CA, USA) equipped with an electrospray ionization source and controlled by Analyst (v. 1.6.2) software. […] The mobile phase consisted of 0.1% formic acid (v/v) in water (A) and 0.1% formic acid in acetonitrile (B) using a linear gradient of 90% A (0–0.5 min), 90 to 60% A (0.5–1.5 min), 60% to 40% A (1.5–3.5 min), 40% to 10% A (3.5–4.5 min), 10% A (4.5–5.5 min), 10% to 90% A (5.5–6.0 min), and 90% A (6.0–7.5 min) for plasma; and 80% A (0–0.2 min), 80 to 64% A (0.2–2.0 min), 64% to 63% A (2.0–4.4 min), 63% to 0% A (4.4–4.5 min), 0% A (4.5–5.5 min), 0% to 90% A (5.5–5.6 min), 90% A (5.6–5.9 min), 90% to 35% A (5.9–6.0 min), 35% A (6.0–6.2 min), 35 to 80% A (6.2–6.3 min), and 80% A (6.3–7.5 min) for urine and feces.

[1] = both sexes, oral, naringin in humans, clinical studies overall
[2] = both sexes, po, 40 mg, naringin 40 mg p.o. single dose
[3] = both sexes, po, 80 mg, naringin 80 mg p.o. single dose
[4] = both sexes, po, 160 mg, naringin 160 mg (high-fat diet) p.o. single dose
[5] = both sexes, po, 160 mg, naringin 160 mg p.o. single dose
[6] = both sexes, po, 320 mg, naringin 320 mg p.o. single dose
[7] = both sexes, po, 480 mg, naringin 480 mg p.o. single dose
[8] = female, po, 40 mg, naringin 40 mg p.o. single dose
[9] = female, po, 80 mg, naringin 80 mg p.o. single dose
[10] = female, po, 160 mg, naringin 160 mg p.o. single dose
[11] = female, po, 160 mg, naringin 160 mg p.o. single dose, high-fat diet group, female
[12] = male, po, 40 mg, naringin 40 mg p.o. single dose
[13] = male, po, 80 mg, naringin 80 mg p.o. single dose
[14] = male, po, 160 mg, naringin 160 mg p.o. single dose
[15] = male, po, 160 mg, naringin 160 mg p.o. single dose, high-fat diet group, male

`C[C@@H]1O[C@@H](O[C@H]2[C@H](Oc3cc(O)c4c(c3)O[C@H](c3ccc(O)cc3)CC4=O)O[C@H](CO)[C@@H](O)[C@@H]2O)[C@H](O)[C@H](O)[C@H]1O` [naringin, Naringin] gave a Tmax [1] of 2.09 ± 1.15 h, a half-life [1] of 2.69 ± 1.77 h and an AUC(0-inf) [2] of 0.00999 ± 0.00422 µg·h/mL. The AUC(0-t) [2] was 0.00761 ± 0.0035 µg·h/mL, the Cmax [2] was 2.24 ± 0.67 ng/mL and the Tmax [2] was 1.97 ± 1.11 h. For the same compound, the half-life [2] was 2.48 ± 1.64 h, the MRT last [2] was 2.66 ± 0.443 h and the MRT inf [2] was 4.9 ± 1.69 h. It also gave an AUC(0-inf) [3] of 0.0122 ± 0.00319 µg·h/mL, an AUC(0-t) [3] of 0.00927 ± 0.00337 µg·h/mL and a Cmax [3] of 2.94 ± 1.17 ng/mL. It also gave a Tmax [3] of 2.09 ± 1.39 h, a half-life [3] of 1.9 ± 1.22 h and an MRT last [3] of 2.8 ± 0.543 h. It also gave an MRT inf [3] of 3.83 ± 1.69 h, an AUC(0-inf) [4] of 0.0182 ± 0.00581 µg·h/mL and an AUC(0-t) [4] of 0.0128 ± 0.00474 µg·h/mL. It also gave a Cmax [4] of 3.04 ± 1.15 ng/mL, a Tmax [4] of 2.66 ± 1.87 h and a half-life [4] of 3.11 ± 1.95 h. For the same compound, the MRT last [4] was 3.45 ± 1.22 h, the MRT inf [4] was 6.19 ± 2.77 h and the AUC(0-inf) [5] was 0.0224 ± 0.00936 µg·h/mL. It also gave an AUC(0-t) [5] of 0.0157 ± 0.00751 µg·h/mL, a Cmax [5] of 4.29 ± 2.63 ng/mL and a Tmax [5] of 2.5 ± 1.41 h. It also gave a half-life [5] of 3.64 ± 3.01 h, an MRT last [5] of 3.3 ± 1.12 h and an MRT inf [5] of 6.54 ± 4.41 h. For the same compound, the AUC(0-inf) [6] was 0.0398 ± 0.0322 µg·h/mL, the AUC(0-t) [6] was 0.0375 ± 0.0322 µg·h/mL and the Cmax [6] was 10.9 ± 12.4 ng/mL. It also gave a Tmax [6] of 1.66 ± 0.99 h, a half-life [6] of 2.51 ± 1.58 h and an MRT last [6] of 3.17 ± 0.677 h. The MRT inf [6] was 4.01 ± 1.05 h, the AUC(0-inf) [7] was 0.0212 ± 0.00795 µg·h/mL and the AUC(0-t) [7] was 0.0194 ± 0.00786 µg·h/mL. The Cmax [7] was 5.69 ± 2.8 ng/mL, the Tmax [7] was 1.66 ± 0.834 h and the half-life [7] was 2.01 ± 0.498 h. The MRT last [7] was 3.08 ± 0.704 h, the MRT inf [7] was 3.86 ± 0.779 h and the AUC(0-inf) [8] was 0.00583 ± 0.000737 µg·h/mL. For the same compound, the AUC(0-t) [8] was 0.00464 ± 0.00101 µg·h/mL, the Cmax [8] was 1.92 ± 0.516 ng/mL and the Tmax [8] was 2.67 ± 1.53 h. For the same compound, the half-life [8] was 1.49 ± 0.849 h, the AUC(0-inf) [9] was 0.0115 ± 0.00269 µg·h/mL and the AUC(0-t) [9] was 0.0102 ± 0.00228 µg·h/mL. For the same compound, the Cmax [9] was 3.3 ± 0.916 ng/mL, the Tmax [9] was 1.44 ± 0.657 h and the half-life [9] was 1.48 ± 0.448 h. For the same compound, the AUC(0-inf) [10] was 0.0259 ± 0.00847 µg·h/mL, the AUC(0-t) [10] was 0.0178 ± 0.00504 µg·h/mL and the Cmax [10] was 3.44 ± 1.08 ng/mL. It also gave a Tmax [10] of 3.25 ± 1.71 h, a half-life [10] of 4.57 ± 3.65 h and an AUC(0-inf) [11] of 0.0209 ± 0.00478 µg·h/mL. It also gave an AUC(0-t) [11] of 0.0161 ± 0.00327 µg·h/mL, a Cmax [11] of 3.78 ± 1.26 ng/mL and a Tmax [11] of 2.88 ± 2.02 h. For the same compound, the half-life [11] was 2.54 ± 1.96 h, the “effect of a high-fat diet on t1/2, Tmax, Cmax and AUC” value was “insignificantly altered” and the AUC(0-inf) [12] was 0.0125 ± 0.00318 µg·h/mL. For the same compound, the AUC(0-t) [12] was 0.00939 ± 0.00323 µg·h/mL, the Cmax [12] was 2.43 ± 0.727 ng/mL and the Tmax [12] was 1.55 ± 0.622 h. It also gave a half-life [12] of 3.07 ± 1.78 h, an AUC(0-inf) [13] of 0.0132 ± 0.00416 µg·h/mL and an AUC(0-t) [13] of 0.00835 ± 0.00436 µg·h/mL. The Cmax [13] was 2.58 ± 1.43 ng/mL, the Tmax [13] was 2.75 ± 1.71 h and the half-life [13] was 2.46 ± 1.83 h. For the same compound, the AUC(0-inf) [14] was 0.0177 ± 0.00993 µg·h/mL, the AUC(0-t) [14] was 0.0137 ± 0.00973 µg·h/mL and the Cmax [14] was 5.14 ± 3.6 ng/mL. The Tmax [14] was 1.75 ± 0.5 h, the half-life [14] was 2.41 ± 1.79 h and the AUC(0-inf) [15] was 0.0147 ± 0.00583 µg·h/mL. For the same compound, the AUC(0-t) [15] was 0.00956 ± 0.00357 µg·h/mL, the Cmax [15] was 2.3 ± 0.201 ng/mL and the Tmax [15] was 2.44 ± 1.98 h. The half-life [15] was 3.86 ± 2.02 h, the CL (naringin 40 mg p.o. single dose) was 67.0 ± 36.3 L/h/kg and the CL (naringin 80 mg p.o. single dose) was 103 ± 49.9 L/h/kg. It also gave a CL (naringin 160 mg (high-fat diet) p.o. single dose) of 172 ± 64.3 L/h/kg, a CL (naringin 160 mg p.o. single dose) of 144 ± 61.6 L/h/kg and a CL (naringin 320 mg p.o. single dose) of 202 ± 131 L/h/kg. It also gave a CL (naringin 480 mg p.o. single dose) of 477 ± 372 L/h/kg.

In the case of `O=C1C[C@@H](c2ccc(O)cc2)Oc2cc(O)cc(O)c21` [naringenin, Naringenin], the half-life (both sexes, oral, naringenin in humans, studies overall) is reported as 2.6 ± 1.89 h, the “effect of a high-fat diet on t1/2, Tmax, Cmax and AUC” value is reported as “insignificantly altered” and the lag-time in plasma (human plasma, after p.o. naringin) is reported as 5.74 ± 2.38 h. The “time for concentrations to increase to Cmax after the lag-time” value (humans, after p.o. naringin) was “about 3.62 ± 3.19 h”.

Reference: article PMC7118210 (Frontiers in Pharmacology, 2020)
